Measurements: patent US20210261569A1, “FUSED HETEROCYCLIC DERIVATIVES HAVING SELECTIVE BACE1 INHIBITORY ACTIVITY” (Shionogi & Co., Ltd., priority 2018, published 2021)

What was measured:
[1] = biological target: T1, recombinant BACE1 protein (Homo sapiens, UniProt P56817); experiment: BACE1 biochemical FRET based assay; details: for Selectivity: BACE2 IC50 relative to BACE1 IC50; for IC50: FRET, pH 5.0, 450 min at room temperature
T1 construct: recombinant BACE1 protein in a final concentration of 0.04 μg/mL
Description: (§1) This assay is a Fluorescence Resonance Energy Transfer Assay (FRET) based assay. The substrate for this assay is an APP derived 13 amino acids peptide that contains the ‘Swedish’ Lys-Met/Asn-Leu mutation of the amyloid precursor protein (APP) beta-site secretase cleavage site. This substrate also contains two fluorophores: (7-methoxycoumarin-4-yl) acetic acid (Mca) is a fluorescent donor with excitation wavelength at 320 nm and emission at 405 nm and 2,4-dinitrophenol (Dnp) is a proprietary quencher acceptor. […] Upon cleavage by BACE1, the fluorophore Mca is separated from the quenching group Dnp, restoring the full fluorescence yield of the donor. The increase in fluorescence is linearly related to the rate of proteolysis.
Briefly in a 384-well format recombinant BACE1 protein in a final concentration of 0.04 μg/mL was incubated for 450 minutes at room temperature with 10 μm substrate in incubation buffer (final concentrations: 33.3 mM Citrate buffer pH 5.0, 0.033% PEG, 3% DMSO) in the absence or presence of compound. Next the amount of proteolysis was directly measured by fluorescence measurement at T=0′-120′ and T=450′ (excitation at 320 nm and emission at 405 nm). Results were expressed in RFU (Relative Fluorescence Units), as difference between T450 and Tx (Tx is chosen depending on the reaction speed between 0 and 120 minutes).
(§2) A best-fit curve was fitted by a minimum sum of squares method to the plot of % Controlmin versus compound concentration. From this an IC50 value (inhibitory concentration causing 50% inhibition of activity) can be obtained.

[2] = biological target: T2, recombinant BACE2 protein (Homo sapiens, UniProt Q9Y5Z0); experiment: BACE2 biochemical FRET based assay; details: pH 5.0, 450 min at room temperature
T2 construct: recombinant BACE2 protein in a final concentration of 0.4 μg/mL
T2 sequence (Q9Y5Z0 63-518): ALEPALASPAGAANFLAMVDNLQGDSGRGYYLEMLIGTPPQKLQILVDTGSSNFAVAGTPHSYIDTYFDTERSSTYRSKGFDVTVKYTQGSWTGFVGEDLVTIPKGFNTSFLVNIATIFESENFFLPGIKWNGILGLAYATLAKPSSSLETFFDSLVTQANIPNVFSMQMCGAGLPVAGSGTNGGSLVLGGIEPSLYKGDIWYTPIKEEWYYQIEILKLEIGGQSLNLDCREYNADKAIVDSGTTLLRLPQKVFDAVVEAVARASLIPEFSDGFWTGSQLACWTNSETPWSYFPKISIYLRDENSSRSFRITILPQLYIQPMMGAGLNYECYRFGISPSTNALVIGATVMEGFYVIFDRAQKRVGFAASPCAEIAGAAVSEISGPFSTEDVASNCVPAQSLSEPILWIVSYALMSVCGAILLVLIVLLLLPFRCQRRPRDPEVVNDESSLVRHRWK
Description: as §1, with “assay” for “assay is an APP derived 13 amino acids peptide that”, “beta-secretase” for “beta-site secretase”, “the beta-secretase,” for “BACE1,”
Briefly in a 384-well format recombinant BACE2 protein in a final concentration of 0.4 μg/mL was incubated for 450 minutes at room temperature with 10 μM substrate in incubation buffer (final concentrations: 33.3 mM Citrate buffer pH 5.0, 0.033% PEG, 2% DMSO) in the absence or presence of compound. Next the amount of proteolysis was directly measured by fluorescence measurement at T=0 and T=450 (excitation at 320 nm and emission at 405 nm). Results were expressed in RFU (Relative Fluorescence Units), as difference between T450 and T0.
as §2

[3] = test system: Abeta 1-42 in cerebrospinal fluid (CSF); experiment: Pharmacology in the beagle dog: beta-amyloid profile in cerebrospinal fluid; type: in vivo; details: single dose 0.63 mg/kg
Procedure: Test compounds were tested to evaluate the effect on the beta-amyloid profile in cerebrospinal fluid (CSF) of dogs after a single dose, in combination with pharmacokinetic (PK) follow up and limited safety evaluation.
In the case of compounds shown below, two or 4 beagle dogs (1 or 2 male, 1 or 2 female) were dosed with vehicle (1 mL/kg of an aqueous solution of 20% cyclodextrin) and 4 beagle dogs (2 males and 2 females) per dose group were dosed with test compound at the doses indicated in the following Table in an aqueous 20% cyclodextrin solution with a concentration in mg/mL identical to the dose given in mg/kg) on an empty stomach.
CSF was taken in conscious animals directly from the lateral ventricle via a cannula which was screwed in the skull and covered with subcutaneous tissue and skin, before and at 4, 8, 25 and 49 hours after dosing. Eight hours after dosing the animals got access to their regular meal for 30 minutes. Blood was taken for PK follow up (0.5, 1, 2, 4, 8, 25 and 49 hours) and serum samples for biochemistry were taken before and at 8 and 25 h after dosing. The CSF samples were used for measurement of Abeta 1-37, Abeta 1-38, Abeta 1-40 and Abeta 1-42.

T1 sequence (P56817 46-501): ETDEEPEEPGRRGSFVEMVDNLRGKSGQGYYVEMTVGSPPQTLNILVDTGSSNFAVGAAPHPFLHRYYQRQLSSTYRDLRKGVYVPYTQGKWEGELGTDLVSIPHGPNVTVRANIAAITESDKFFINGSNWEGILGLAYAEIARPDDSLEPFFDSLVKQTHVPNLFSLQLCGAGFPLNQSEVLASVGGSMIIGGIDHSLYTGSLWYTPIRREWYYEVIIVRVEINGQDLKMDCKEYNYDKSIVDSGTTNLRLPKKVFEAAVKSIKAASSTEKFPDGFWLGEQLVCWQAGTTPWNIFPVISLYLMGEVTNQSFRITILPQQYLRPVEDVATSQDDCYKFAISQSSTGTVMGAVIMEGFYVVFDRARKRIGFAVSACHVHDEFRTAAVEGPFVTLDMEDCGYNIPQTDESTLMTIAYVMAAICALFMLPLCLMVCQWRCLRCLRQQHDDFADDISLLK

Selectivity [1]	IC50 [1] [nM]	IC50 [2] [nM]	SMILES	% change in Abeta 1-42 from own baseline ([3]; 8 h) [%]	% change in Abeta 1-42 from own baseline ([3]; 24 h or 25 h) [%]
28	11	309	C[C@@H]1OC[C@H]2[C@@H]1OC(N)=N[C@]2(CF)c1cc(NC(=O)c2cnc(OCF)cn2)ccc1F [Compound I-082]	−58	−41
31	13	389	NC1=N[C@](CF)(c2cc(NC(=O)c3cnc(OCF)cn3)ccc2F)[C@H]2[C@H](CC(F)F)OC[C@H]2O1 [Compound I-116]	–	–
